{"source": "patent US7524646B2", "about": "(priority 2001, dated 2009)", "assay_type_in_all_cases": "cell-based, E. coli", "key": {"[1]": {"system": "strain β5456 (valS:T222P)", "test": "Growth on Abu gradient plates, valS:T222P strain", "settings": "gradient plate, 50 μl 0.1 M, 2 days at 37° C.", "experimental": "FIG. 1C: Photographs showing the results of growth of a strain carrying the valS:T222P allele in the presence of L-threonine or Abu. Minimal medium plates supplemented with thymidine (0.3 mM) were pretreated with amino acid solutions by streaking either with Thr (50 μl (0.2 M)) or Abu (50 μl (0.1 M)) vertically along the diameter of the plate to create an amino acid gradient. Mutant (β5456) and wild-type (β5419 (thyA::erm+ ΔnrdD::kan+ pTS13 (bla+ thyA: 146GUA)) strains were then streaked horizontally across the plates and incubated for 2 days at 37° C.\n(§1) We anticipated that ValRS mutants that misincorporated Cys would also misincorporate Abu. […] Whole cell protein was isolated from strain CU505 grown in the presence of Abu (0.2 mM), in the presence or absence of the valS:T222P allele in the host cell. […] Finally, the valine-rich yeast protein AlaXp (swissprot:P53960) was overexpressed and purified from strains containing the valS:T222P allele grown in the presence of Abu. The protein samples were digested by trypsin and analyzed by mass spectrometry. […] For a given peptide the degree of misincorporation ranged between 9.5% and 18% per Val codon. Sequencing of several Abu-containing peptides confirmed that Abu was specifically misincorporated into positions designated by Val codons."}, "[2]": {"system": "Δilv strain CU505 (wild-type valS)", "test": "Amino acid composition of total protein after growth with Abu, wild-type valS", "settings": "WT + Abu (0.2 mM); 24 hours; relative to WT control that lacked Abu", "experimental": "as §1\n(§2) Table 2. Incorporation of Abu into cells bearing wild-type and T222P mutant alleles of valS. Cultures of the Δilv strain CU505 (19) and the isogenic strain β5498 carrying the valS:T222P allele were grown overnight in minimal medium (27) with Ile-Leu (0.3 mM) and limiting valine (0.04 mM Ile-Val), diluted (1/2), and adjusted with Ile-Val (0.02 mM) with or without Abu (0.2 mM). After 24 hours of growth, total protein was extracted as follows. Cells were first harvested by centrifugation and washed in cold 10% trichloroacetic acid (TCA, 1/2 of the culture volume). Cells were then re-centrifuged at 4000×g for 10 min, resuspended in cold 10% TCA (1/10 of the culture volume) and centrifuged again. The washed cells were resuspended in […], heated at 95° C. for 30 minutes and centrifuged (4000×g, 10 min). The precipitate was washed three times with cold acetone and dissolved in 50 mM NH4HCO3. Proteins were hydrolyzed in 6 N HCl-0.2% phenol at 110C. for 20 h in sealed tubes. Norleucine was added as an internal standard. Aliquots of the hydrolysates were analyzed on a Beckman 6300 Amino Acid Analyzer. Amino acids were quantified by appropriate standards and values are presented relative the wild-type (WT) control that lacked Abu."}, "[3]": {"system": "strain β5498 carrying the valS:T222P allele", "test": "Amino acid composition of total protein after growth with Abu, valS:T222P", "settings": "for valine in cellular protein replaced by Abu: whole cell protein, strain harboring the mutant allele, Abu 0.2 mM", "experimental": "as §1, §2"}, "valine auxotroph CU505": {"system": "valine auxotroph CU505", "test": "Growth of valine auxotroph with limiting valine and increasing Abu, wild-type valS", "settings": "up to 1 mM Abu; OD 600 nm, 24 h, 30° C.", "experimental": "(§3) FIG. 3. A graph showing the results of growth of the valine auxotroph CU505 in the presence of a limiting supply of valine and increasing concentrations of Abu. Overnight cultures of Δilv auxotrophs containing the WT valS (É) or the mutant valS:T222P allele (J) and grown in MS glucose medium with limiting valine (0.04 mM Ile-Val. 0.3 mM Ile-Leu) were diluted 1/1, the Val concentration was adjusted to 0.02 mM and the biomass was determined by measuring the optical density at 600 nm after 24 h of growth at 30° C.\n(§4) Abu misincorporation. The valine auxotroph CU505 (33) was grown in the presence of a limiting supply of valine and increasing concentrations of Abu (FIG. 3). […] In contrast, when the valST222P allele was introduced into the chromosome (strain β5498), the yield of cells was diminished in the absence of Abu but increased up to 30% when Abu (0.2 mM) was added."}, "[4]": {"system": "strain β5498 (valS:T222P allele)", "test": "Growth of valine auxotroph with limiting valine and Abu, valS:T222P", "settings": "Abu 0.2 mM; limiting valine 0.02 mM; OD 600 nm, 24 h, 30° C.", "experimental": "as §3, §4"}, "[5]": {"settings": "T222P + Abu (0.2 mM), 24 hours, relative to WT control that lacked Abu"}}, "data": [{"smiles": "CCC(N)C(=O)O", "note": "(stereo not drawn) [Abu, α-aminobutyric acid]", "values": [{"measurement": "sensitivity of growth to Abu", "setting": "[1]", "value": "sensitive"}, {"measurement": "Abu incorporated into total protein", "setting": "[2]", "value": 0.0}, {"measurement": "Ala incorporated into total protein", "setting": "[2]", "value": 1.0}, {"measurement": "Ile incorporated into total protein", "setting": "[2]", "value": 1.0}, {"measurement": "Val + Abu incorporated into total protein", "setting": "[2]", "value": 1.0}, {"measurement": "Val incorporated into total protein", "setting": "[2]", "value": 1.0}, {"measurement": "Abu incorporated into total protein", "setting": "[3]; [5]", "value": 0.24}, {"measurement": "Ala incorporated into total protein", "setting": "[3]; [5]", "value": 0.92}, {"measurement": "Ile incorporated into total protein", "setting": "[3]; [5]", "value": 1.0}, {"measurement": "Val + Abu incorporated into total protein", "setting": "[3]; [5]", "value": 0.97}, {"measurement": "Val incorporated into total protein", "setting": "[3]; [5]", "value": 0.73}, {"measurement": "valine in cellular protein replaced by Abu", "setting": "[3]", "value": 24, "unit": "%"}, {"measurement": "valine in cellular protein replaced by Abu", "setting": "[3]; listed as aminobutyrate", "value": "Over 20%"}, {"measurement": "biomass of cells relative to the valine concentration", "setting": "valine auxotroph CU505", "value": "did not change"}, {"measurement": "increase of yield of cells", "setting": "[4]", "value": "up to 30%"}]}]}
